One compound from PMC10610115, “Identification of Potential JNK3 Inhibitors: A Combined Approach Using Molecular Docking and Deep Learning-Based Virtual Screening” (Pharmaceuticals, 2023) can be followed below.

For this assay, the target named is T1, JNK3 (c-Jun N-terminal kinase 3) (Homo sapiens, UniProt P53779).
T1 construct: gene MAPK10
Nature of the assay: HTRF-type kinase assay (Cryptate/XL665), dose response. The format is biochemical. For orientation: Time-resolved FRET reads energy transfer from a long-lived donor to a nearby acceptor.

T1 sequence (P53779 whole entry): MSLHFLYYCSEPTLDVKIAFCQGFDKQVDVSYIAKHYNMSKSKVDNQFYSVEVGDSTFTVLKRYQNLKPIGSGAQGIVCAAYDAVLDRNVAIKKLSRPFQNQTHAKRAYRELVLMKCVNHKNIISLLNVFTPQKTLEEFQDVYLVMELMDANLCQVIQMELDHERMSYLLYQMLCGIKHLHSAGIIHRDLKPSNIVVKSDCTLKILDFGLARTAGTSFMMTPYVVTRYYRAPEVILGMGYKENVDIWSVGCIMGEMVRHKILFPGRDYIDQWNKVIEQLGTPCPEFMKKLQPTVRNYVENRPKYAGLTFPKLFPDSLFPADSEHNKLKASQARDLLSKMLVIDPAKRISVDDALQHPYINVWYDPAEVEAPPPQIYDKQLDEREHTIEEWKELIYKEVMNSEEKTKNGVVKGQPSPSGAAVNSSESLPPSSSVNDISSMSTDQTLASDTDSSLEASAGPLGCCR

With `CCc1nc(-c2cccc(C)c2)c(-c2ccnc(NC(=O)c3ccccc3)c2)s1` [compound 6, N-(4-(2-ethyl-4-(m-tolyl)thiazol-5-yl)pyridin-2-yl)benzamide], the IC50 was found to be 130 nM.

As a reminder, the IC50 is the concentration at which inhibition is half-maximal. Low values mean greater potency in that assay, high ones weaker potency in that assay.
